Results as given in patent US6037447A, “Glycopeptide compounds” (priority 1998, dated 2000).
Values after ≈ are worked out from the molar mass of the structure shown.

Key:
[1] = system: Staphylococcus aureus 446; assay: Standard broth micro-dilution MIC, Staphylococcus aureus 446; type: cell-based
Protocol: (§1) The minimal inhibitory concentrations (MICs) were determined using a standard broth micro-dilution assay.

[2] = system: Staphylococcus aureus 489; assay: Standard broth micro-dilution MIC, Staphylococcus aureus 489; type: cell-based
Protocol: as §1

[3] = system: Staphylococcus aureus 447; assay: Standard broth micro-dilution MIC, Staphylococcus aureus 447; type: cell-based
Protocol: as §1

[4] = system: Staphylococcus aureus X400; assay: Standard broth micro-dilution MIC, Staphylococcus aureus X400; type: cell-based
Protocol: as §1

[5] = system: Staphylococcus aureus X778; assay: Standard broth micro-dilution MIC, Staphylococcus aureus X778; type: cell-based
Protocol: as §1

[6] = system: Staphylococcus aureus 491; assay: Standard broth micro-dilution MIC, Staphylococcus aureus 491; type: cell-based
Protocol: as §1

[7] = system: Staphylococcus aureus S13E; type: cell-based
Protocol: as §1

[8] = system: Staphylococcus aureus SA1199; assay: Standard broth micro-dilution MIC, Staphylococcus aureus SA1199; type: cell-based
Protocol: as §1

[9] = system: Staphylococcus aureus SA1199A; assay: Standard broth micro-dilution MIC, Staphylococcus aureus SA1199A; type: cell-based
Protocol: as §1

[10] = system: Staphylococcus aureus SA119913; assay: Standard broth micro-dilution MIC, Staphylococcus aureus SA119913; type: cell-based
Protocol: as §1

[11] = system: Staphylococcus haemolyticus 105; assay: Standard broth micro-dilution MIC, Staphylococcus haemolyticus 105; type: cell-based
Protocol: as §1

[12] = system: Staphylococcus haemolyticus 415; assay: Standard broth micro-dilution MIC, Staphylococcus haemolyticus 415; type: cell-based
Protocol: as §1

[13] = system: Staphylococcus epidermidis 270; assay: Standard broth micro-dilution MIC, Staphylococcus epidermidis 270; type: cell-based
Protocol: as §1

Enterococcus faecium 180 = assay: Standard broth micro-dilution MIC, Enterococcus faecium 180; type: cell-based
Protocol: as §1

[14] = system: Enterococcus faecalis 2041; assay: Standard broth micro-dilution MIC, Enterococcus faecalis 2041; type: cell-based
Protocol: as §1

[15] = system: Enterococcus faecalis 276; assay: Standard broth micro-dilution MIC, Enterococcus faecalis 276; type: cell-based
Protocol: as §1

[16] = system: Enterococcus gallinarum 245; assay: Standard broth micro-dilution MIC, Enterococcus gallinarum 245; type: cell-based
Protocol: as §1

[17] = system: Streptococcus pyogenes C203; assay: Standard broth micro-dilution MIC, Streptococcus pyogenes C203; type: cell-based
Protocol: as §1

[18] = system: Streptococcus pneumoniae P1; assay: Standard broth micro-dilution MIC, Streptococcus pneumoniae P1; type: cell-based
Protocol: as §1

[19] = system: vancomycin-resistant enterococci; assay: In Vitro Activity Against Enterococci, vancomycin-resistant strains; type: cell-based; details: representative vancomycin-resistant enterococci (Enterococcus faecium and Enterococcus faecalis)
Protocol: as §1

[20] = system: vancomycin-sensitive enterococci; assay: In Vitro Activity Against Enterococci, vancomycin-sensitive strains; type: cell-based, Enterococcus faecium and Enterococcus faecalis; details: for mean geometric MIC, Vancomycin Sensitive Strains: representative vancomycin-sensitive enterococci (Enterococcus faecium and Enterococcus faecalis)
Protocol: as §1

[21] = system: Enterococcus faecium 180-1; assay: Standard broth micro-dilution MIC, Enterococcus faecium 180-1; type: cell-based
Protocol: as §1

| Compound | MIC [1] [µg/mL] | MIC [2] [µg/mL] | MIC [3] [µg/mL] | MIC [4] [µg/mL] | MIC [5] [µg/mL] | MIC [6] [µg/mL] | MIC [7] [µg/mL] | MIC [8] [µg/mL] | MIC [9] [µg/mL] | MIC [10] [µg/mL] | MIC [11] [µg/mL] | MIC [12] [µg/mL] | MIC [13] [µg/mL] | MIC (Enterococcus faecium 180) [µg/mL] | MIC [14] [µg/mL] | MIC [15] [µg/mL] | MIC [16] [µg/mL] | MIC [17] [µg/mL] | mean geometric MIC, Vancomycin Resistant Strains [19] [µg/mL] | mean geometric MIC, Vancomycin Sensitive Strains [20] [µg/mL] | also measured |
| --- | --- | --- | --- | --- | --- | --- | --- | --- | --- | --- | --- | --- | --- | --- | --- | --- | --- | --- | --- | --- | --- |
| 1,3-phenylene-bis-[(oxy-1,3-n-propyleneoxy-4,1-phenylene)]-methylene]-bis-[vancomycin] [Compound 12] | 8 | 2 | 8 | 2 | 2 | 2 | 4 | 4 | 1 | 4 | 4 | 4 | 4 | ≤ 0.06 | 0.25 | 1 | 0.06 | 0.06 | 4.0 | 0.66 | MIC [18]: 0.06 µg/mL |
| 1,3-phenylenebis[oxy-1,3-n-propylene-oxy-4,1-phenylene)methylene]bis-[A82846B,(3-dimethylaminopropyl)-amide] [Compound 71] | 4 | 2 | 4 | 4 | 2 | 2 | 2 | 4 | 2 | 2 | 2 | 2 | 1 | 2 | 0.5 | 1 | 0.5 | 0.5 | 2.4 | 0.38 | MIC [21]: 0.5 µg/mL; MIC [18]: 0.5 µg/mL |
| CN[C@H](CC(C)C)C(=O)N[C@H]1C(=O)N[C@@H](CC(N)=O)C(=O)N[C@H]2C(=O)N[C@H]3C(=O)N[C@H](C(=O)N[C@H](C(=O)O)c4cc(O)cc(O)c4-c4cc3ccc4O)[C@H](O[C@H]3C[C@](C)(N)[C@@H](O)[C@H](C)O3)c3ccc(c(Cl)c3)Oc3cc2cc(c3O[C@@H]2O[C@H](CO)[C@@H](O)[C@H](O)[C@H]2O[C@H]2C[C@](C)(N)[C@@H](O)[C@H](C)O2)Oc2ccc(cc2Cl)[C@H]1O [Compound A82846B, A82846B, reference compound] |  | ≤ 0.06 |  |  |  |  |  |  | ≤ 0.06 |  |  |  |  | 8 (≈ 5.02 µM) |  |  |  |  | 29 | 0.22 |  |
| CN[C@H](CC(C)C)C(=O)N[C@H]1C(=O)N[C@@H](CC(N)=O)C(=O)N[C@H]2C(=O)N[C@H]3C(=O)N[C@H](C(=O)N[C@H](C(=O)O)c4cc(O)cc(O)c4-c4cc3ccc4O)[C@H](O)c3ccc(c(Cl)c3)Oc3cc2cc(c3O[C@@H]2O[C@H](CO)[C@@H](O)[C@H](O)[C@H]2O[C@H]2C[C@](C)(N)[C@H](O)[C@H](C)O2)Oc2ccc(cc2Cl)[C@H]1O [Vancomycin, reference compound] |  |  |  |  |  |  |  |  |  |  |  |  |  | > 64 | 2 (≈ 1.38 µM) | 1 (≈ 0.69 µM) |  |  |  |  | MIC ([20]; read-out: mean geometric MIC, Vancomycin Sensitive Strains): 3.9 µg/mL (≈ 2.69 µM) |
| N^4 -(4(3-(3-(3-(p-formylphenoxy)-n-propyloxy)phenoxy)-n-propyloxy)-benzyl)vancomycin [Compound 52] |  |  |  |  |  |  |  |  |  |  |  |  |  |  |  |  |  |  | 4.8 | 0.093 |  |
